Measurements from ChEMBL document CHEMBL1201862, “PubChem BioAssay data set” (2004).
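Five concentrations, 48 hours, 96-well plates. GI50 = concentration required for 50% inhibition of growth.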 The source made the active and inactive calls. Cut-off read from the data, not from the text of the source: active = GI50 up to about 1.1 µM and inactive = higher.

Key:
Assay in all cases: DTP human tumour cell line panel, 48 h
[1] = test system: A498
[2] = test system: A549
[3] = test system: BT-549
[4] = test system: CAKI-1
[5] = test system: CCRF-CEM
[6] = test system: COLO 205
[7] = test system: DU-145
[8] = test system: EKVX
[9] = test system: HCC 2998
[10] = test system: HCT-116
[11] = test system: HCT-15
[12] = test system: HL-60
[13] = test system: HOP-62
[14] = test system: HOP-92
[15] = test system: HT-29
[16] = test system: Hs-578T
[17] = test system: IGROV-1
[18] = test system: K562
[19] = test system: LOX IMVI
[20] = test system: M14
[21] = test system: MCF7
[22] = test system: MDA-MB-435
[23] = test system: MDA-N
[24] = test system: MOLT-4
[25] = test system: Malme-3M
[26] = test system: NCI-H226
[27] = test system: NCI-H23
[28] = test system: NCI-H460
[29] = test system: NCI/ADR-RES
[30] = test system: OVCAR-3
[31] = test system: OVCAR-4
[32] = test system: OVCAR-5
[33] = test system: OVCAR-8
[34] = test system: PC-3
[35] = test system: RXF 393
[36] = test system: SF-268
[37] = test system: SF-295
[38] = test system: SF-539
[39] = test system: SK-MEL-28
[40] = test system: SK-MEL-2
[41] = test system: SK-MEL-5
[42] = test system: SK-OV-3
[43] = test system: SN12C
[44] = test system: SNB-19
[45] = test system: SNB-75
[46] = test system: SR
[47] = test system: SW-620
[48] = test system: T47D
[49] = test system: TK-10
[50] = test system: U-251
[51] = test system: UACC-257
[52] = test system: UACC-62
[53] = test system: UO-31
[54] = test system: 786-0
[55] = test system: ACHN
[56] = test system: KM12
[57] = test system: MDA-MB-231
[58] = test system: RPMI-8226
[59] = test system: NCI-H522

Nc1nc(N)c2c(n1)NC(=O)c1c(c3ccccc3n1Cc1ccc(Cl)cc1)C2
GI50 [1]: 16 µM (inactive) | GI50 [2]: 21.1 µM (inactive) | GI50 [3]: 24.2 µM (inactive) | GI50 [4]: 19.7 µM (inactive) | GI50 [5]: 17.7 µM (inactive) | GI50 [6]: 16 µM (inactive) | GI50 [7]: 14.4 µM (inactive) | GI50 [8]: 33.2 µM (inactive) | GI50 [9]: 17.8 µM (inactive) | GI50 [10]: 23.6 µM (inactive) | GI50 [11]: 17 µM | GI50 [12]: 18 µM (inactive) | GI50 [13]: 25.5 µM (inactive) | GI50 [14]: 1.5 µM (inactive) | GI50 [15]: 31.3 µM (inactive) | GI50 [16]: 24 µM (inactive) | GI50 [17]: 29.6 µM (inactive) | GI50 [18]: 25.6 µM (inactive) | GI50 [19]: 19.1 µM (inactive) | GI50 [20]: 37.8 µM (inactive) | GI50 [21]: 35.3 µM (inactive) | GI50 [22]: 18.8 µM (inactive) | GI50 [23]: 16.6 µM (inactive) | GI50 [24]: 6.56 µM (inactive) | GI50 [25]: 55.3 µM (inactive) | GI50 [26]: 37.6 µM (inactive) | GI50 [27]: > 100 µM (inactive) | GI50 [28]: 18.2 µM (inactive) | GI50 [29]: 26.6 µM (inactive) | GI50 [30]: 23.3 µM (inactive) | GI50 [31]: 18.5 µM (inactive) | GI50 [32]: 48.9 µM (inactive) | GI50 [33]: 26.4 µM (inactive) | GI50 [34]: 23 µM (inactive) | GI50 [35]: 15.5 µM (inactive) | GI50 [36]: 45.5 µM (inactive) | GI50 [37]: 34.2 µM (inactive) | GI50 [38]: 23.9 µM (inactive) | GI50 [39]: 49 µM (inactive) | GI50 [40]: 32.4 µM (inactive) | GI50 [41]: 15.3 µM (inactive) | GI50 [42]: 18.8 µM (inactive) | GI50 [43]: 17.3 µM (inactive) | GI50 [44]: > 100 µM (inactive) | GI50 [45]: 17.9 µM (inactive) | GI50 [46]: > 10 µM (inactive) | GI50 [47]: 35.8 µM (inactive) | GI50 [48]: 16.8 µM (inactive) | GI50 [49]: 21.5 µM (inactive) | GI50 [50]: 25.8 µM (inactive) | GI50 [51]: 64.1 µM (inactive) | GI50 [52]: 45.7 µM (inactive) | GI50 [53]: > 100 µM (inactive)

CCOC(=O)CCC(NC(=O)C(CCC(=O)OCC)NC(=O)C(Cc1ccc([N+](=O)[O-])cc1)NC(C)=O)C(=O)NNC(=O)OC(C)(C)C (stereo unspecified)
GI50 [54]: > 100 µM (inactive) | GI50 [1]: > 100 µM (inactive) | GI50 [2]: > 100 µM (inactive) | GI50 [55]: > 100 µM (inactive) | GI50 [3]: > 100 µM (inactive) | GI50 [6]: > 100 µM (inactive) | GI50 [8]: > 100 µM (inactive) | GI50 [9]: > 100 µM (inactive) | GI50 [10]: > 100 µM (inactive) | GI50 [11]: > 100 µM | GI50 [12]: > 100 µM (inactive) | GI50 [13]: > 100 µM (inactive) | GI50 [14]: > 100 µM (inactive) | GI50 [15]: > 100 µM (inactive) | GI50 [16]: > 100 µM (inactive) | GI50 [17]: > 100 µM (inactive) | GI50 [18]: > 100 µM (inactive) | GI50 [56]: > 100 µM (inactive) | GI50 [20]: > 100 µM (inactive) | GI50 [21]: > 100 µM (inactive) | GI50 [57]: > 100 µM (inactive) | GI50 [23]: > 100 µM (inactive) | GI50 [24]: > 100 µM (inactive) | GI50 [25]: > 100 µM (inactive) | GI50 [26]: > 100 µM (inactive) | GI50 [27]: 65.6 µM (inactive) | GI50 [28]: > 100 µM (inactive) | GI50 [32]: > 100 µM (inactive) | GI50 [33]: > 100 µM (inactive) | GI50 [34]: > 100 µM (inactive) | GI50 [58]: > 100 µM (inactive) | GI50 [35]: 14 µM (inactive) | GI50 [39]: > 100 µM (inactive) | GI50 [40]: > 100 µM (inactive) | GI50 [41]: > 100 µM (inactive) | GI50 [43]: > 100 µM (inactive) | GI50 [44]: > 100 µM (inactive) | GI50 [45]: > 100 µM (inactive) | GI50 [47]: > 100 µM (inactive) | GI50 [48]: 37.3 µM (inactive) | GI50 [49]: > 100 µM (inactive) | GI50 [50]: > 100 µM (inactive) | GI50 [51]: > 100 µM (inactive) | GI50 [52]: > 100 µM (inactive) | GI50 [53]: > 100 µM (inactive)

COc1ccc(C(=O)c2sc(Nc3ccccc3)nc2N)cc1
GI50 [54]: 13.1 µM (inactive) | GI50 [1]: > 100 µM (inactive) | GI50 [2]: 24.2 µM (inactive) | GI50 [55]: > 100 µM (inactive) | GI50 [3]: > 100 µM (inactive) | GI50 [5]: 1.17 µM (inactive) | GI50 [7]: > 68.9 µM (inactive) | GI50 [8]: 60.5 µM (inactive) | GI50 [9]: > 100 µM (inactive) | GI50 [11]: 3.84 µM | GI50 [12]: 2.2 µM (inactive) | GI50 [13]: 21 µM (inactive) | GI50 [14]: 50.1 µM (inactive) | GI50 [15]: > 100 µM (inactive) | GI50 [16]: 23.3 µM (inactive) | GI50 [17]: 14.3 µM (inactive) | GI50 [18]: 2.25 µM (inactive) | GI50 [19]: > 100 µM (inactive) | GI50 [20]: > 100 µM (inactive) | GI50 [21]: 4.9 µM (inactive) | GI50 [57]: > 75.7 µM (inactive) | GI50 [22]: 1.36 µM (inactive) | GI50 [24]: 2.16 µM (inactive) | GI50 [25]: > 100 µM (inactive) | GI50 [26]: > 100 µM (inactive) | GI50 [27]: > 100 µM (inactive) | GI50 [28]: > 100 µM (inactive) | GI50 [59]: 6.82 µM (inactive) | GI50 [29]: > 100 µM (inactive) | GI50 [30]: > 26.9 µM (inactive) | GI50 [31]: 10.7 µM (inactive) | GI50 [32]: > 100 µM (inactive) | GI50 [33]: 29 µM (inactive) | GI50 [34]: > 72.8 µM (inactive) | GI50 [58]: 3.72 µM (inactive) | GI50 [35]: 13.4 µM (inactive) | GI50 [36]: 28.4 µM (inactive) | GI50 [37]: 32.4 µM (inactive) | GI50 [38]: 14.3 µM (inactive) | GI50 [39]: > 100 µM (inactive) | GI50 [40]: 4.88 µM (inactive) | GI50 [41]: > 100 µM (inactive) | GI50 [42]: 26.9 µM (inactive) | GI50 [43]: > 60.5 µM (inactive) | GI50 [44]: 22.7 µM (inactive) | GI50 [46]: 0.778 µM (active) | GI50 [47]: 2.69 µM (inactive) | GI50 [48]: > 100 µM (inactive) | GI50 [49]: > 55.7 µM (inactive) | GI50 [50]: 12.7 µM (inactive) | GI50 [51]: > 100 µM (inactive) | GI50 [52]: > 100 µM (inactive) | GI50 [53]: 55.8 µM (inactive)
